Tests used:
human colon cancer = assay: Human colon cancer model: mice orthotopically implanted with GFP-transfected colon cancer tumor fragments; format: in vivo
Description: A study testing Hb-FUdR in mice orthotopically implanted with tumor fragments derived from colon cancer cells (transfected with green fluorescence protein for in-life tumor visualization was conducted as follows:
(§1) Study design: Fifty (50) tumor-bearing mice were randomly divided into five groups with ten (10) mice per group. Animals (10 mice per group) were treated with Hb-FUdR at 6, 32, and 161 mg Hb/kg (0.15, 0.74, and 3.7 mg FUdR/kg) twice weekly via intravenous injection (tail vein) at 5 mL/kg. Control untreated animals were treated with PBS at 5 mL/kg. Control FUdR treated animals were treated with 3.7 mg FUdR/kg. Study endpoint: The study was terminated 47 days post tumor inoculation. All remaining mice in each group were sacrificed at this time point. All animals in the PBS treated group and approximately 50% of animals in other treated groups died before the study endpoint. Therefore, survival time between groups was considered one of the criteria to assess the efficacy of the test agents. Primary tumors were excised and weighted at necropsy for subsequent analysis.
The anti-tumor efficacy of Hb-FUdR against the implanted human colon cancer was evaluated by comparing the primary tumor sizes measured twenty-one days after treatment initiation, and the differences in survival time between the Hb-FUdR treated and PBS control groups.

[1] = parameters: species or system mice; conditions: mouse, in vivo
Description: as §1
[…]. […] Other symptoms of related toxicity were absent by gross observation.

HCC = conditions: SHARP trial; vs. 7.9 months; cited from earlier work
[2] = Hb 0 mg/kg, FUdR 3.7 mg/kg (free drug), 9 mice evaluated

| SMILES | No. of mice with L.N. met. (human colon cancer; [2]) | No. of mice with liver met. (human colon cancer; [2]) | Mean survival time (human colon cancer; Hb 0 mg/kg, FUdR 3.7 mg/kg (free drug), study terminated 47 days post tumor inoculation) [days] | Average tumor volume (human colon cancer; Hb 0 mg/kg, FUdR 3.7 mg/kg (free drug), twenty-one days after treatment initiation) [mm^3] | Survival time of the treated mice (human colon cancer; summary statement) | Toxicity [1] | Overall survival (HCC) [months] |
| --- | --- | --- | --- | --- | --- | --- | --- |
| O=c1[nH]c(=O)n([C@H]2C[C@H](O)[C@@H](CO)O2)cc1F [FUdR, floxuridine] | 6 | 4 | 43.9 | 254.58 ± 196.74 | significantly prolonged survival time | without obvious toxicity |  |
| CNC(=O)c1cc(Oc2ccc(NC(=O)Nc3ccc(Cl)c(C(F)(F)F)c3)cc2)ccn1 [Sorafenib] |  |  |  |  |  |  | 10.7 |

Reference: patent US20230190947A1, “Hemoglobin-Targeted Drug Delivery For The Treatment of Cancer” (Therapure Biopharma Inc., priority 2016, published 2023)
